In experiment [1] the test system is insulin resistant rats. Description: Early insulin response to an oral glucose challenge in insulin resistant rats. It counts as in vivo, Male Sprague-Dawley rats. As to conditions: 10 μmol/kg oral in CMC, 30 min before oral glucose 1 g/kg; high fat diet rats; % increase of the mean of the control animals. The method, then: Male Sprague-Dawley rats that had been fed a high fat diet (saturated fat=57% calories) for 2-3 weeks were fasted for approximately 2 hours on the day of testing, divided into groups of 8-10, and dosed orally with 10 μmol/kg of the test compounds in CMC. An oral glucose bolus of 1 g/kg was administered 30 minutes after the test compound directly into the stomach of the test animals. Blood samples, obtained at various timepoints from chronic jugular vein catheters, were analyzed for plasma glucose and immunoreactive insulin (IRI) concentrations, and plasma DPP-IV activity. Plasma insulin levels were assayed by a double antibody radioimmunoassay (RIA) method using a specific anti-rat insulin antibody from Linco Research (St. Louis, Mo.). The RIA has a lower limit of detection of 0.5 μU/mL with intra- and inter-assay variations of less than 5%. Data are expressed as % increase of the mean of the control animals. Upon oral administration, each of the compounds tested amplified the early insulin response which led to an improvement in glucose tolerance in the insulin resistant test animals.

The target of experiment [2] is human plasma DPP-IV (Homo sapiens, UniProt P27487). In words: DPP-IV inhibition in human plasma. As to conditions: substrate H-Glycine-Proline-AMC, pH 7.8, room temperature, 8-point curve. It counts as biochemical.
Procedure: (§1) Briefly, 5 μl of plasma are added to 96-well flat-bottom microtiter plates (Falcon), followed by the addition of 5 μl of 80 mM MgCl2 in incubation buffer (25 mMHEPES, 140 mM NaCl, 1% RIA-grade BSA, pH 7.8). After a 60 min. incubation at room temperature, the reaction is initiated by the addition of 10 μl of incubation buffer containing 0.1 mM substrate (H-Glycine-Proline-AMC;AMC is 7-amino-4-methylcoumarin). The plates are covered with aluminum foil (or kept in the dark) and incubated at room temperature for 20 min. […] A fluorescence-concentration curve of free AMC is generated using 0-50 μM solutions of AMC in assay buffer. The curve generated is linear and is used for interpolation of substrate consumption (catalytic activity in nmoles substrate cleaved/min). As with the previous assay, the potency of the test compounds as DPP-IV inhibitors, expressed as IC50, is calculated from 8-point, dose-response curves using a 4 parameter logistic function.
The target in experiment [3] is rat plasma DPP-IV (Rattus norvegicus, UniProt P14740). In words: DPP-IV inhibition in rat plasma.
rat plasma DPP-IV, sequence (P14740 37-767 limits assumed): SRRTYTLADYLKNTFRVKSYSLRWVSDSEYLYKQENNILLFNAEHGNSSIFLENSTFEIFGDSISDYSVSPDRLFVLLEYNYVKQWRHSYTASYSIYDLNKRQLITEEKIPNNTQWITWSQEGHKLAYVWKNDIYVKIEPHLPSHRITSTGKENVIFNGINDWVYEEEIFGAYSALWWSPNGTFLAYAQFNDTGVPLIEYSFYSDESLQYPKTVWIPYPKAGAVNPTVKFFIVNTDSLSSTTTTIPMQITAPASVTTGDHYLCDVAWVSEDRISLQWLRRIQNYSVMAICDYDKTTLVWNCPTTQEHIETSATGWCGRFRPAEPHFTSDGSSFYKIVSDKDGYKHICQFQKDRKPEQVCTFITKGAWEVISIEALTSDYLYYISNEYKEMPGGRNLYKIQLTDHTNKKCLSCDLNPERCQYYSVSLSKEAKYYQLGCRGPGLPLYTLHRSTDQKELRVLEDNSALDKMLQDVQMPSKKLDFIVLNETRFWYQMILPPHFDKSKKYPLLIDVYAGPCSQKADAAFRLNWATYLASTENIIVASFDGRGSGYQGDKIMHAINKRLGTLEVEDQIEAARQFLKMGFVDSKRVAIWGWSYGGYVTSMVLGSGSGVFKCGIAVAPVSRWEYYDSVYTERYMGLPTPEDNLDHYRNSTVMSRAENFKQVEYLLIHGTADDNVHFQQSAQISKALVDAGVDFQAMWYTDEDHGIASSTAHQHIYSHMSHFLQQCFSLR
Procedure: as §1

human plasma DPP-IV, sequence (P27487 39-766 limits assumed): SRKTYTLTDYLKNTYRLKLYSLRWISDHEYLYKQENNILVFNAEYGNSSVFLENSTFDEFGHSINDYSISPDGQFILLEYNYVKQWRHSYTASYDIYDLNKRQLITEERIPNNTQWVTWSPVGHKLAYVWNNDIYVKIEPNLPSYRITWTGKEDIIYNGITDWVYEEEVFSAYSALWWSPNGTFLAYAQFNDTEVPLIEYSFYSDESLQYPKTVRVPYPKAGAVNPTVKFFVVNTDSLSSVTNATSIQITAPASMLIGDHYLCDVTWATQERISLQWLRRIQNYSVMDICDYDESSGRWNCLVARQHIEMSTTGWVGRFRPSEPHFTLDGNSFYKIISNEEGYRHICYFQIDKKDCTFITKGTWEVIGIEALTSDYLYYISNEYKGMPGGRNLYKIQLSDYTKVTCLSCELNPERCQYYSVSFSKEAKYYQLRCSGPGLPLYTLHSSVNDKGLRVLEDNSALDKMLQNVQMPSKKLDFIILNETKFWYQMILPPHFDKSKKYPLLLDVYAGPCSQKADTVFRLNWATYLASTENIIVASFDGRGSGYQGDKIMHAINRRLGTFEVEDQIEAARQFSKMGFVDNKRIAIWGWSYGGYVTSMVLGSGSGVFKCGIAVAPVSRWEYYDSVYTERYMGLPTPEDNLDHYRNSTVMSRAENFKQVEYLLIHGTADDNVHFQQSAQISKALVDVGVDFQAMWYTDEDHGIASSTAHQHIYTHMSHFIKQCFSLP

On to `N#C[C@@H]1CCCN1C(=O)CNC12CC3CC(CC(O)(C3)C1)C2` [Ex. 1, Pyrrolidine, 1-[(3-hydroxy-1-adamantyl)amino]acetyl-2-cyano-, (S)], for which, in experiment [1], the “Increase of Insulin Response” value stood at 64%.

As usually defined, the IC50 is the concentration at which inhibition is half-maximal. The low end stands for higher potency, the high end for lower potency. In the case of `N#C[C@@H]1CCCN1C(=O)CNC1C2CC3CC1CC(O)(C3)C2` (stereo partly drawn) [Ex. 8, Pyrrolidine, 1-[[(5-hydroxy-2-adamantyl)amino]-acetyl]-2-cyano-, (S)-], the IC50 in experiment [2] turned out to be 6 nM; in experiment [3], 12 nM.

(Values after patent US6166063A, “N-(substituted glycyl)-2-cyanopyrrolidines, pharmaceutical compositions containing them and their use in inhibiting dipeptidyl peptidase-IV” (Novartis AG, priority 1999, dated 2000).)
